From patent publication US7781464B2, “Heterocyclic diphenyl ethers” (Bexel Pharmaceuticals, Inc., priority 2003, dated 2010)

How the values were obtained:
[1] = system: TNFα; experiment: TNFα inhibition in LPS-challenged human PBMC (ELISA); assay type: cell-based; conditions: 10 μM, LPS 100 ng/mL for 20 hours
Experimental: Referring to FIG. 7, human PBMC cells were cultured and incubated with Compound 1 and 2 at 10 μM concentration. Cells (1×10^6/mL) were challenged with lipopolysaccharides (LPS) at a concentration of (100 ng/mL) for 20 hours. TNF was measured by ELISA.

[2] = system: LPS-induced NO production; experiment: Inhibition of LPS-induced NO production in RAW 264.7 macrophages (Griess nitrite); assay type: cell-based, mouse; conditions: RAW 264.7, 30 μM, LPS 200 ng/mL + IFN-γ 10 U/mL, 18 hours
Experimental: Mouse macrophages (RAW 264.7) were plated in 6-well plate (2 million cells/well), and incubated at 37° C. with LPS (200 ng/mL+IFN-γ 10 U/mL) for 18 hours. Nitrite levels were measured by the Griess reagent. All of the compounds were tested at 30 μM concentrations.

[3] = system: db/db mice; experiment: Serum cholesterol in db/db mice; assay type: in vivo; conditions: 50 mg/kg once daily for 14 days
Experimental: Referring to FIG. 6, db/db mice (6-8 weeks old) were treated with Compound 2 (50 mg/kg) once daily for 14 days. At the end of the study serum cholesterol was measured by a calorimetric method.

[4] = system: human liver cells (HepG2); experiment: Cytotoxicity in HepG2 cells (MTS viability); conditions: 24 hours, up to 100 μM
Experimental: To find the cytotoxic effect of this class of new thiazolidinedione compounds (TZD), they were incubated in HepG2 cells for 24 hours and then the viability was measured by colorimetric reactions with MTS.

[5] = system: 3T3-L1 fibroblasts; experiment: Adipogenesis in 3T3-L1 fibroblasts (Oil-red-O staining); assay type: cell-based; conditions: stained on day 11, rosiglitazone 10 μM positive control
Experimental: All known PPAR-γ agonists (both TZD or non-TZDs) induce differentiation in the fibroblast cells. The adipogenic potential of these compounds are correlated with their affinity to this receptor. Referring to FIG. 3, to check whether the Compounds 1 and 2 have any affinity to these receptors, 3T3-L1 fibroblasts were treated with either DMSO control or rosiglitazone (all at 10 μM concentrations) as positive control or these two compounds for several days at different concentrations. On day 11th, the differentiated adipocytes were stained with Oil-red-O (Sigma) and washed thoroughly to remove the unbound stain. The stained differentiated adipocytes were visualized under high-resolution microscope.

[6] = system: 3T3-L1 adipocytes; experiment: Basal glucose uptake in 3T3-L1 adipocytes (14C-2-deoxyglucose); assay type: cell-based; conditions: 1.0 μM, 72 hours treatment, 10 minutes uptake without insulin, vs 0.1% DMSO
Experimental: Referring to FIG. 1, 3T3-L1 fibroblasts were differentiated to adipocytes by a cocktail containing insulin, dexamethasone and IBMX for four days. Fully differentiated adipocytes were treated with the compounds (1.0 μM concentrations) or 0.1% DMSO for 72 hours and then glucose uptake was carried out for 10 minutes without any addition of insulin. Basal uptake was initiated by addition of radioactive ^14C-2-deoxyglucose and after 10 minutes they were washed with cold PBS mixed with cold glucose. At the end, the cells were solubilized with 0.1% SDS and counted in a Beckman scintillation counter.

[7] = system: db/db mice; experiment: Oral glucose tolerance in db/db mice; assay type: in vivo; conditions: 50 mg/kg once daily for 14 days, oral glucose challenge 2 g/kg BW
Experimental: Referring to FIG. 5, db/db mice (6-8 weeks old) were treated with Compound 2 (50 mg/kg) once daily for 14 days. On day 14 the animals were fasted overnight and gavaged with Compound 2, one hour prior to oral glucose challenge (2 g/kg BW).

[8] = system: db/db (spontaneous model) diabetic mice; experiment: Blood glucose lowering in db/db diabetic mice; assay type: in vivo; conditions: oral, 50 mg/kg body weight, daily
Experimental: Referring to FIG. 4, ten week old male db/db (spontaneous model) diabetic mice were orally treated with compound 1 at a dose of 50 mg/kg body weight and blood glucose was monitored by one touch glucometer every day morning before the next dose.

Compound | inhibition of pro-inflammatory cytokines (TNF by ELISA) [1] | inhibition of LPS-induced NO production (nitrite concentration) [2] | serum cholesterol [3] | cytotoxicity (viability by MTS) [4] | adipogenesis (differentiation of fibroblasts, Oil-red-O) [5] | basal glucose uptake [6] | glucose tolerance [7] | blood glucose [8]
O=C(O)Cc1ccc(Oc2ccc(CC3SC(=O)NC3=O)cc2)cc1 (stereo not drawn) [Compound 1, {4-[4-(2,4-Dioxothiazolidin-5-ylmethyl)phenoxy]-phenyl}acetic acid] | inhibit major pro-inflammatory cytokines | inhibition of LPS-induced NO production | serum cholesterol lowering effect | did not show any toxicity | non-adipogenic | induced glucose uptake over basal levels |  | 
{4-[4-(2,4-Dioxo-thiazolidin-5-ylmethyl)-phenoxy]-phenyl}-acetic acid disodium salt [Compound 2] | inhibit major pro-inflammatory cytokines | inhibition of LPS-induced NO production |  |  | non-adipogenic | induced glucose uptake over basal levels | improvement in glucose tolerance | blood glucose lowering effect
